{"source": "patent EP0105584B1", "about": "“Perfluorocarbon emulsions and their preparation and use in therapy” (ADAMANTECH, INC., priority 1982, dated 1984)", "key": {"[1]": {"system": "LAN-1 human neuroblastoma spheroid system", "assay": "In vitro chemosensitization with Adriamycin, spheroids", "type": "cell-based", "conditions": "in the presence of PFC Dispersion B", "description": "(§1) In the course of in vitro chemosensitization studies in the LAN-1 human neuroblastoma spheroid system, conducted substantially as described in Example 4 above except for Adriamycin as the chemotherapeutic agent, it was noted that the anti-tumor activity of the Adriamycin was inhibited by the PFC material (PFC Dispersion B). […] This was tested by dissolving in water a radio-labelled analogue of Adriamycin, C^14-Daunomycin, adding Dispersion B (or in separate experiments, the neat PFC component of Dispersion B), blending for 30 minutes, separating the PFC phase from the aqueous phase, and determining the distribution of drug between the phases. Table VIII below reports the results of the experiment and similar experiments with three other drugs. It will be noted that the more lipophilic Duanomycin preferentially partitioned into the PFC phase whereas the other, less lipophilic, drugs favored the aqueous phase. It was concluded that although the PFC may have an inhibitory effect on less lipophilic drugs, the delivery of lipophilic drugs will be enhanced by the PFC."}, "MCa-11 mammary carcinoma [2]": {"system": "MCa-11 mammary carcinoma", "assay": "In vivo chemosensitization with cyclophosphamide", "set-up": "species or system BALB/c mice", "conditions": "cyclophosphamide 75 mg/kg i.p. single dose", "description": "The combined use of PFC dispersion (Dispersion B) and high oxygen breathing for enhancement of the anti-tumor effects of cyclophosphamide (\"CYC\") was investigated with respect to treatment of MCa-11 mammary carcinoma transplanted into the right hind leg of female BALB/c mice. The tumors were allowed to grow to 2 mm at which point the animals were treated as described in Table VII below, wherein the cyclophosphamide, obtained commercially, was dissolved in distilled water and injected in a volume equal to […] of body weight. Three to six animals per treatment group were used in the study. On the day of treatment and three to five times per week thereafter, the tumors were sized with vernier calipers."}, "[3]": {"assay": "Distribution of drug between PFC phase and aqueous phase of Dispersion B", "type": "physicochemical", "conditions": "for Drug in emulsion÷ drug in aqueous phase: Dispersion B, blending for 30 minutes", "description": "as §1\nThe partitioning of the Vincristine between the PFC and aqueous phases of Dispersion B was first studied in comparison with Daunomycin, as reported in Table IX below, where \"PFC\" means the PFC phase of Dispersion B."}, "[4]": {"assay": "Octanol:water partition coefficient"}, "[5]": {"system": "NB-100 neuroblastoma multicellular tumor spheroids", "assay": "In vitro chemosensitization with methotrexate, MTS", "type": "cell-based, human", "conditions": "5 µM MTX for 24 hours"}, "MCa-11 mammary carcinoma [6]": {"system": "MCa-11 mammary carcinoma", "assay": "In vivo chemosensitization with Vincristine", "set-up": "species or system BALB/c mice", "conditions": "Vincristine 1.5 mg/kg i.p. single dose, or 20 ml/kg Dispersion B i.v. with carbogen breathing, each alone"}, "P388 leukemia": {"system": "P388 leukemia", "conditions": "cited from earlier work"}, "[7]": {"conditions": "1 hour, PFC phase of Dispersion B"}}, "note": "Marks after values point to notes of the source that are not given here.", "data": [{"smiles": "COc1cccc2c1C(=O)c1c(O)c3c(c(O)c1C2=O)C[C@@](O)(C(=O)CO)C[C@@H]3O[C@H]1C[C@H](N)[C@H](O)[C@H](C)O1", "note": "[Adriamycin]", "values": [{"measurement": "anti-tumor activity", "setting": "[1]", "value": "inhibited"}]}, {"smiles": "O=P1(N(CCCl)CCCl)NCCCO1", "note": "(stereo not drawn) [Cyclophosphamide, cyclophosphamide]", "values": [{"measurement": "Days to grow 6 mm", "setting": "MCa-11 mammary carcinoma [2]; interpolated from the tumor growth curves", "value": 17.8, "unit": "days"}, {"measurement": "Growth delay", "setting": "MCa-11 mammary carcinoma [2]; relative to untreated controls", "value": 5.3}]}, {"smiles": "COc1cccc2c1C(=O)c1c(O)c3c(c(O)c1C2=O)C[C@@](O)(C(C)=O)C[C@@H]3O[C@H]1C[C@H](N)[C@H](O)[C@H](C)O1", "note": "[Daunomycin]", "values": [{"measurement": "PFC/H2O (ratio of concentrations in the emulsion and the aqueous phases)", "setting": "[3]; [7]", "value": 1.23}, {"measurement": "PFC/H2O (ratio of concentrations in the emulsion and the aqueous phases)", "setting": "[3]; 3 hours, PFC phase of Dispersion B", "value": 3.80}, {"measurement": "Drug in emulsion÷ drug in aqueous phase", "setting": "[3]", "value": 3.77}, {"measurement": "logP", "setting": "[4]", "value": -0.102}]}, {"smiles": "CN(Cc1cnc2nc(N)nc(N)c2n1)c1ccc(C(=O)N[C@@H](CCC(=O)O)C(=O)O)cc1", "note": "[MTX, methotrexate]", "values": [{"measurement": "D8, number of days required for the MTS to grow 8 units or 200 µm beyond their original diameter", "setting": "[5]", "value": 9.52, "unit": "days"}, {"measurement": "MTS sizes", "setting": "[5]; Day 0, 1 unit=25 µm", "value": "9.83±0.17", "unit": "microscope units"}, {"measurement": "MTS sizes", "setting": "[5]; Day 1", "value": 9.74, "unit": "microscope units"}, {"measurement": "MTS sizes", "setting": "[5]; Day 4", "value": 10.69, "unit": "microscope units"}, {"measurement": "MTS sizes", "setting": "[5]; Day 6", "value": 11.76, "unit": "microscope units"}, {"measurement": "MTS sizes", "setting": "[5]; Day 8", "value": 13.93, "unit": "microscope units"}, {"measurement": "MTS sizes", "setting": "[5]; Day 12", "value": 18.93, "unit": "microscope units"}, {"measurement": "MTS sizes", "setting": "[5]; Day 15", "value": 21.83, "unit": "microscope units"}, {"measurement": "Drug in emulsion÷ drug in aqueous phase", "setting": "[3]", "value": 0.07}, {"measurement": "Lipophilicity index (partition coefficient of the drug between octanol and water)", "value": 0.014}]}, {"smiles": "COCC(O)Cn1ccnc1[N+](=O)[O-]", "note": "(stereo not drawn) [Misonidazole]", "values": [{"measurement": "Drug in emulsion÷ drug in aqueous phase", "setting": "[3]", "value": 0.04}, {"measurement": "logP", "setting": "[4]", "value": -0.367}]}, {"smiles": "CC[C@]1(O)C[C@H]2CN(CCc3c([nH]c4ccccc34)[C@@](C(=O)OC)(c3cc4c(cc3OC)N(C=O)[C@H]3[C@@](O)(C(=O)OC)[C@H](OC(C)=O)[C@]5(CC)C=CCN6CC[C@]43[C@@H]65)C2)C1", "note": "[Vincristine]", "values": [{"measurement": "PFC/H2O (ratio of concentrations in the emulsion and the aqueous phases)", "setting": "[3]; [7]", "value": 2.69}, {"measurement": "PFC/H2O (ratio of concentrations in the emulsion and the aqueous phases)", "setting": "[3]; 3 hours, determined via bioassay in the LAN-1 neuroblastoma spheroid system", "value": "9.10^c"}, {"measurement": "effect on tumor growth", "setting": "MCa-11 mammary carcinoma [6]", "value": "no effect on tumor growth"}, {"measurement": "logP", "setting": "[4]", "value": 2.83}]}, {"smiles": "NCCCNCCSP(=O)(O)O", "note": "[WR-2721, S - 2 - (3 - aminopropylamino) ethylphosphorothioic acid]", "values": [{"measurement": "Drug in emulsion÷ drug in aqueous phase", "setting": "[3]", "value": 0.05}, {"measurement": "logP", "setting": "[4]", "value": -2.7}]}, {"smiles": "FC(F)(F)C(F)(F)C(F)(F)C(F)(F)C(F)(F)C(F)(F)C(F)(F)C(F)(F)Br", "note": "[perfluorooctyl bromide]", "values": [{"measurement": "local toxicity", "setting": "P388 leukemia; mouse, in vivo", "value": "local toxic reactions in the peritoneal cavity were observed"}, {"measurement": "improvement in therapy (survival time)", "setting": "P388 leukemia; oxygen-saturated neat compound injected 24 hours before graded doses of whole body X-rays, versus salt solution", "value": "failed to show a significant improvement in therapy"}]}]}
